Reference: publication PMC10584170, “Machine learning-based phenotypic imaging to characterise the targetable biology of Plasmodium falciparum male gametocytes for the development of transmission-blocking antimalarials” (PLOS Pathogens, 2023)
Like-named read-outs stand apart in the source and are kept apart here.

Columns and labels:
HepG2 cells [1] = test: HepG2 cytotoxicity counter-screen; conditions: for Mean TOX: mean of the HepG2 TOX50 values; for Tox50: cytotoxic activity against HepG2 cells
[2] = tested on: P. falciparum male gametocytes; test: P. falciparum Dual Gamete Formation Assay (PfDGFA), male readout (exflagellation); assay type: cell-based, Plasmodium falciparum NF54; conditions: for Selectivity Ratio M: HepG2 Tox50 versus male IC50; for inhibition at 2 µM: 24h preincubation with gametocytes
How it was run: (§1)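 Read-outs are automated image counts of exflagellation centres (brightfield, 10 frames over 1 s) and Pfs25-positive female gametes (Cy3 fluorescence).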

[3] = tested on: P. falciparum female gametocytes; test: P. falciparum Dual Gamete Formation Assay (PfDGFA), female readout (Pfs25-positive female gametes); assay type: cell-based, Plasmodium falciparum NF54; conditions: for Selectivity ratio F: HepG2 Tox50 versus female IC50; for inhibition at 2 µM: 24h preincubation with gametocytes
How it was run: as §1

HepG2 cells [4] = conditions: cited from earlier work
[5] = tested on: P. berghei ookinete development; test: P. berghei Ookinete Development Assay (PbODA); assay type: cell-based, Plasmodium berghei; conditions: Mean TOX HepG2 over Pb ODA value; GREEN = >10-fold; RED = <10-fold
Text: (§2) Fig 1 The activity of TCAMS compound identified in the Pf DGFA screen. (A) 85 molecules were confirmed active in the Pf DGFA. 58 were previously identified in one or more transmission-blocking screens. […] No molecule was identified with >4.7-fold greater activity against female gametocytes. Abbreviations (IC50 = concentration giving 50% inhibition, PbODA = P. berghei Ookinete Development Assay, PfDGFA = P. falciparum Dual Gamete Formation Assay, PfFGAA = P. falciparum Female Gametocyte Activation Assay, PfGCT = P. falciparum Gametocyte Viability ATP Assay).

[6] = tested on: P. falciparum female gametocytes; test: P. falciparum Female Gametocyte Activation Assay (PfFGAA); assay type: cell-based, Plasmodium falciparum
Text: as §2

[7] = tested on: P. falciparum female gametocytes; parameters: method as in Miguel-Blanco et al 2017; conditions: ref Miguel-Blanco et al 2017; read-out: Pf female gametogenesis FGAA IC50; cited from earlier work
[8] = this study, read-out: Pf DGFA IC50 MALE
[9] = this study, read-out: Pf DGFA IC50 FEM
[10] = Mean TOX HepG2 over FGAA IC50, GREEN = >10-fold, RED = <10-fold
[11] = Mean TOX HepG2 over DGFA IC50 MALE, GREEN = >10-fold, RED = <10-fold
[12] = Plasmodium falciparum, PfDGFA, 24 h incubation with gametocytes before induction, exflagellation readout, read-out: Male IC50
[13] = Mean TOX HepG2 over DGFA IC50 FEM, GREEN = >10-fold, RED = <10-fold
[14] = Plasmodium falciparum, PfDGFA, 24 h incubation with gametocytes before induction, female gamete readout, read-out: Female IC50
[15] = HepG2 value reported with the FGAA screen, ref Miguel-Blanco et al 2017

Row | Compound | Mean TOX (HepG2 cells [1]) [µM] | Cytotox ratio Pf Male [2] | IC50 [2, 8] [nM] | Cytotox ratio Pf Female [3] | IC50 [3, 9] [nM] | ODA TOX50 HepG2 (HepG2 cells [4]) [µM] | Cytotox ratio Pb Ookinete [5] | FGAA TOX50 HepG2 (HepG2 cells [4]) [µM] | Cytotox ratio Pf FGAA [6, 10] | IC50 [7] [nM] | further results
1 | Br.CC[C@H]1CN2CCc3cc(OC)c(OC)cc3[C@@H]2C[C@@H]1C[C@H]1NCCc2c1cc(OC)c(O)c2I [TC07] | 5.89 | 7.0 | 840 | 20.3 | 290 | 5.433 | 8736.5 |  |  |  | 
2 | CCC1=C[C@@H]2CN(C1)Cc1c([nH]c3ccccc13)[C@@](C(=O)OC)(c1cc3c(cc1OC)N(C)[C@H]1[C@@](O)(C(=O)OC)[C@H](O)[C@]4(CC)C=CCN5CC[C@]31[C@@H]54)C2.O=S(=O)(O)O [TC21] | 48.44 | 4844.5 | 10 | 4.8 |  | 41.2098 | 80190.9 |  |  |  | 
3 | COc1ccc(Nc2ncc(C#N)c(Nc3ccccc3C(N)=O)n2)cc1N1CCN(C)CC1.Cl [TC22] | 8.95 | 89.5 | 100 | 0.9 |  | 8.318 | 308001.0 |  |  |  | 
4 | CN1CCN(c2ccc(Nc3ncc(Cl)c(Nc4cccnc4C(N)=O)n3)cc2)CC1.Cl [TC24] | 5.46 | 11.9 | 460 | 1.0 | 5470 | 4.624 | 13093.5 |  |  |  | 
5 | COc1ccc(-c2cnc(N)c(-c3ccc(C(N)=O)cc3)c2)cc1OC [TC26] | 57.57 | 205.6 | 280 | 5.8 |  | 100 | 82067.7 |  |  |  | 
6 | COc1cccc(C23NC(=Nc4nc5ccccc5[nH]4)NC2(c2cccc(OC)c2)NC(=Nc2nc4ccccc4[nH]2)N3)c1 (stereo not shown) [TC54] | 36.56 | 19.8 | 1850 | 28.1 | 1300 |  |  | 40.74 | 406.2 | 90 | 
7 | COc1ccc2nc(N=C3NC4(c5ccccc5)NC(=Nc5nc6ccc(OC)cc6[nH]5)NC4(c4ccccc4)N3)[nH]c2c1.O=C(O)C(F)(F)F (stereo not shown) [TC55] | 48.12 | 41.5 | 1160 | 8.2 | 5840 |  |  | 62.72 | 401.0 | 120 | 
8 | c1ccc(-c2nc(Nc3nc4ccccc4[nH]3)[nH]c2-c2ccccc2)cc1 [TC56] | 13.60 | 14.3 | 950 | 13.3 | 1020 |  |  | 10.98 | 23.4 | 580 | 
9 | CCN(CC)CCN(Cc1ccc(-c2ccc(C(F)(F)F)cc2)cc1)C(=O)Cn1cc(Cc2cnn(C)c2)c(=O)nc1/C=C/c1ccc(F)cc1.O=C(O)C(O)C(O)C(=O)O [TC64] | 15.09 | 17.8 | 850 | 2.1 | 7160 |  |  | 13.81 | 12.5 | 1210 | 
10 | FC(F)(F)c1ccc2[nH]c(-c3ccc(-c4cccc(CNCCN5CCNCC5)c4)cc3)nc2c1.O=C(O)C(F)(F)F [TC77] | 16.43 | 10.0 | 1640 | 3.2 | 5150 |  |  | 12.31 | 9.6 | 1710 | 
11 | CC(Nc1cc(-c2ccccn2)nc(-c2ccccn2)n1)c1ccccc1 (stereo not shown) [TCMDC-125420] | 6.79 |  |  |  |  |  |  |  |  | 210 | Tox50 (HepG2 cells [1]): 7.4 µM; Selectivity Ratio M [2]: 3.89; Cytotox ratio Pf Male [2, 11]: 3.6; inhibition at 2 µM ([2]; Plasmodium falciparum, PfDGFA at 2µM, average of replicates, read-out: Average inhibition male (%)): 78.7%; inhibition at 2 µM ([2]; Plasmodium falciparum, PfDGFA at 2µM, replicate R1, read-out: % inhibition male (individual replicates) R1): 74.1%; inhibition at 2 µM ([2]; Plasmodium falciparum, PfDGFA at 2µM, replicate R2, read-out: % inhibition male (individual replicates) R2): 77.3%; inhibition at 2 µM ([2]; Plasmodium falciparum, PfDGFA at 2µM, replicate R4, read-out: % inhibition male (individual replicates) R4): 84.5%; IC50 [2, 12]: 1900 nM; HitlevelM ([2]; number of replicates with >50% inhibition in the male readout, 2µM): 3; Selectivity ratio F [3]: 10.4; Cytotox ratio Pf Female [3, 13]: 9.6; inhibition at 2 µM ([3]; Plasmodium falciparum, PfDGFA at 2µM, average of replicates, read-out: Average inhibition female (%)): 56%; inhibition at 2 µM ([3]; Plasmodium falciparum, PfDGFA at 2µM, replicate R1, read-out: % inhibition female (individual replicates) R1): 55.2%; inhibition at 2 µM ([3]; Plasmodium falciparum, PfDGFA at 2µM, replicate R2, read-out: % inhibition female (individual replicates) R2): 57.8%; inhibition at 2 µM ([3]; Plasmodium falciparum, PfDGFA at 2µM, replicate R3, read-out: % inhibition female (individual replicates) R3): 63%; inhibition at 2 µM ([3]; Plasmodium falciparum, PfDGFA at 2µM, replicate R4, read-out: % inhibition female (individual replicates) R4): 48%; IC50 [3, 14]: 710 nM; HitlevelF ([3]; number of replicates with >50% inhibition in the female readout, 2µM): 3; FGAA TOX50 HepG2 (HepG2 cells [4]; [15]): 6.18 µM; Cytotox ratio Pf FGAA ([6]; human): 29.4
12 | CN(C)CCOc1ccc(NC(=O)NC(C)(C)c2nc(-c3ccc(Cl)c(O)c3)c(-c3ccncc3)[nH]2)cc1.Cl [TCMDC-140744] | 21.75 |  |  |  |  |  |  |  |  | 730 | Tox50 (HepG2 cells [1]): 29.19 µM; Selectivity Ratio M [2]: 89.77; Cytotox ratio Pf Male [2, 11]: 65.9; inhibition at 2 µM ([2]; Plasmodium falciparum, 2µM, average of replicates, read-out: Average inhibition male (%)): 97.8%; inhibition at 2 µM ([2]; Plasmodium falciparum, 2µM, replicate R1, read-out: % inhibition male (individual replicates) R1): 98.2%; inhibition at 2 µM ([2]; Plasmodium falciparum, 2µM, replicate R2, read-out: % inhibition male (individual replicates) R2): 101%; inhibition at 2 µM ([2]; Plasmodium falciparum, 2µM, replicate R3, read-out: % inhibition male (individual replicates) R3): 95.7%; inhibition at 2 µM ([2]; Plasmodium falciparum, 2µM, replicate R4, read-out: % inhibition male (individual replicates) R4): 96.3%; IC50 [2, 12]: 330 nM; Selectivity ratio F [3]: 76.37; Cytotox ratio Pf Female [3, 13]: 57.2; inhibition at 2 µM ([3]; Plasmodium falciparum, 2µM, average of replicates, read-out: Average inhibition female (%)): 95.5%; inhibition at 2 µM ([3]; Plasmodium falciparum, 2µM, replicate R1, read-out: % inhibition female (individual replicates) R1): 91.1%; inhibition at 2 µM ([3]; Plasmodium falciparum, 2µM, replicate R2, read-out: % inhibition female (individual replicates) R2): 96.2%; inhibition at 2 µM ([3]; Plasmodium falciparum, 2µM, replicate R3, read-out: % inhibition female (individual replicates) R3): 101%; inhibition at 2 µM ([3]; Plasmodium falciparum, 2µM, replicate R4, read-out: % inhibition female (individual replicates) R4): 93.9%; IC50 [3, 14]: 380 nM; FGAA TOX50 HepG2 (HepG2 cells [4]; [15]): 14.3 µM; Cytotox ratio Pf FGAA ([6]; human): 29.8
